The term EC50 denotes the concentration giving half of the maximal effect.

The target in this assay is Genome polyprotein (Hepatitis C virus genotype 1a (isolate H77), UniProt P27958). Kind of assay: HCV Replicon Assay Luciferase. The note with it: 37 °C. As to the method: Briefly, replicon cells are seeded at 7,000 cells per well in 90 ul DMEM (without phenol red, Invitrogen Cat. #31053-036) per well with 10% FCS, 1% non-essential amino acids, 1% of Glutamax and 1% of 100 penicillin/streptomycin and incubated overnight at 37° C., 5% CO2, 100% relative humidity. 16-20 h after seeding cells, test compounds previously solubilized and titrated in dimethyl sulfoxide ( DMSO") from each X plate and Y plate are diluted 1:100 in DMEM (without phenol red, Invitrogen Cat. #31053-036) with 10% FCS, 1% non-essential amino acids, 1% of Glutamax and 1% of 100 penicillin/streptomycin and added directly to the 96-well plate containing cells and growth medium at a 1:10 dilution for a final dilution of compound and DMSO of 1:1000 ([…]). Drug treated cells are incubated at 37° C., 5% CO2, 100% relative humidity for 72 hours before performing a luciferase assay using 100 ul per well BriteLite Plus (Perkin Elmer) according to the manufacturer's instructions. Data analysis utilizes the method published by Prichard and Shipman (Antiviral Research, 1990. 14:181-205). Using this method, the combination data are analyzed for antagonistic, additive, or synergistic combination effects across the entire combination surface created by the diluted compounds in combination.
Sequence of Genome polyprotein (P27958 whole entry): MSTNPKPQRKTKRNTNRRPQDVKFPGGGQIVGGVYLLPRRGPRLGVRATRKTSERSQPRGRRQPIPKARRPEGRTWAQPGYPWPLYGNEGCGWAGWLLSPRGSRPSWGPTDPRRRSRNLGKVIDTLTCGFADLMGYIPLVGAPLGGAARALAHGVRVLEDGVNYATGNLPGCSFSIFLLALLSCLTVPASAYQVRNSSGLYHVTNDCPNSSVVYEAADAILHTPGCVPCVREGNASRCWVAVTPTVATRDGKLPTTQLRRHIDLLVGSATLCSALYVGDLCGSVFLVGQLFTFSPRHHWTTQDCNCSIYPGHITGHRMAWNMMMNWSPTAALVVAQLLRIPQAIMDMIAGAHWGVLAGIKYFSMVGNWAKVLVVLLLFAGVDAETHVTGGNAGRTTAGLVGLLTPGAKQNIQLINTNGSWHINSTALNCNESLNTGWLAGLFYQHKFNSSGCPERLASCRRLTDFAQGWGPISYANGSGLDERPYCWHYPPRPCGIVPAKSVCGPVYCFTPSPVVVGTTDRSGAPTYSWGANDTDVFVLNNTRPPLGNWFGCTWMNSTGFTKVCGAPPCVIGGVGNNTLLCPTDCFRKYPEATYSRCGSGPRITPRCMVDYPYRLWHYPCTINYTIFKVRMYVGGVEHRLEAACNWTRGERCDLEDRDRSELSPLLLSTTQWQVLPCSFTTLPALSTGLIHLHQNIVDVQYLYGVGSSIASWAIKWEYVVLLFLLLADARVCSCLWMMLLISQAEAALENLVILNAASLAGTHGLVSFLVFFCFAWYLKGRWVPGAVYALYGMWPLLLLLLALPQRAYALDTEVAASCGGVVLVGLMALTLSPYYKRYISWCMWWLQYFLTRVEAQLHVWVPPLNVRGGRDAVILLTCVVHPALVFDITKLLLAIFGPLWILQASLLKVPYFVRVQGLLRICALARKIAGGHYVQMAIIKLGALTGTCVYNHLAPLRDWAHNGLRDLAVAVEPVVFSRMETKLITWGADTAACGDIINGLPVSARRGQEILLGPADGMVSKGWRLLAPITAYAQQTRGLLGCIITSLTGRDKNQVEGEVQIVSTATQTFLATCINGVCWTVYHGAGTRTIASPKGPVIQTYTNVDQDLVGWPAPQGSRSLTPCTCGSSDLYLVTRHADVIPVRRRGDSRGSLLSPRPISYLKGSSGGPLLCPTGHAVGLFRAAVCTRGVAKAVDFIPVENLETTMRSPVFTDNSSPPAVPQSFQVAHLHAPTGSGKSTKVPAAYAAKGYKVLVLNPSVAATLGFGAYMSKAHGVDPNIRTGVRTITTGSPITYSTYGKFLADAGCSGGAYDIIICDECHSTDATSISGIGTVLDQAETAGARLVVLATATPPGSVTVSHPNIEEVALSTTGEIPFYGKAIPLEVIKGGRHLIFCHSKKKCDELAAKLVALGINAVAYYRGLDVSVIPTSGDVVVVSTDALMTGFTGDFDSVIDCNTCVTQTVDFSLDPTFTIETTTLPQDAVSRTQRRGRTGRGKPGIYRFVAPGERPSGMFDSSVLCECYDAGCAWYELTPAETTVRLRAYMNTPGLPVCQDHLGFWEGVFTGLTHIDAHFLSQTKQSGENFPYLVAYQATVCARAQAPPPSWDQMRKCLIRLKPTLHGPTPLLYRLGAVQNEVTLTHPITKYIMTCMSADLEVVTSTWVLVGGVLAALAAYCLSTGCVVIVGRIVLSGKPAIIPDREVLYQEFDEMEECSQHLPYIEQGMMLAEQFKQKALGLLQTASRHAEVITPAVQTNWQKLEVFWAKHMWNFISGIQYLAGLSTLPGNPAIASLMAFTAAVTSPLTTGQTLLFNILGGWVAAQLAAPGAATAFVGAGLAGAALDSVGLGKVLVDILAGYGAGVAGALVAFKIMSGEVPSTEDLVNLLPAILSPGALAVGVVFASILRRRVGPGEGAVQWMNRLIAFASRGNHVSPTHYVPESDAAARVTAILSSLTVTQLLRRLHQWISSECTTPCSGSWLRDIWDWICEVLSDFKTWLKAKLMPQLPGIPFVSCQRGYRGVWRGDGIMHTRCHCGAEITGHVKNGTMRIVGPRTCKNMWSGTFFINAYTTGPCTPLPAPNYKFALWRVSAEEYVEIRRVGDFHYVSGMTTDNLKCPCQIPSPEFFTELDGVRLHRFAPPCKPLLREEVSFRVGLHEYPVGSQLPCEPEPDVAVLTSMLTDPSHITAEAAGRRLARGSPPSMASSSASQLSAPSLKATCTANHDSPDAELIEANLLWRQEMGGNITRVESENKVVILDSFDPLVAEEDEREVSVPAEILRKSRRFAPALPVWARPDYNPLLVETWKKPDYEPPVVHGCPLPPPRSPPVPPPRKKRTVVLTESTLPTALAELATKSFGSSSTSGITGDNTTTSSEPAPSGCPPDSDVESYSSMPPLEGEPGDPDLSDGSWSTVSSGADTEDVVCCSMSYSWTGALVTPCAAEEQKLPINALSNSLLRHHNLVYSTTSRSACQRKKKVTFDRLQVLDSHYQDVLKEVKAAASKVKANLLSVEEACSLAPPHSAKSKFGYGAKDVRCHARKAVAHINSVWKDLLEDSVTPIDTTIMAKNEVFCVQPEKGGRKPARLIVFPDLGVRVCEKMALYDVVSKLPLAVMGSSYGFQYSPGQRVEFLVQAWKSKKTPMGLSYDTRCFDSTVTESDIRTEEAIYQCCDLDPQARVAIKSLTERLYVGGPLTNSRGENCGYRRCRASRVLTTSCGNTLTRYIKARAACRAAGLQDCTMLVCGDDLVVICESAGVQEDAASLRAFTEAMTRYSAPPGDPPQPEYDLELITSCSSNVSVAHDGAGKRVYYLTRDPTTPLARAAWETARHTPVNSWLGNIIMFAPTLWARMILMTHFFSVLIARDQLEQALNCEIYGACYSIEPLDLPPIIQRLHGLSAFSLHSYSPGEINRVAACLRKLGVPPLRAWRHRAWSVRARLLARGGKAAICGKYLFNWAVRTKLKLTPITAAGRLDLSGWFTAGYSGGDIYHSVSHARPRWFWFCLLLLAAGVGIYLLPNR
In general terms: A replicon is a self-replicating genome or part of one, used to study replication in cells.

As for `C/C=C/C[C@@H](C)C(=O)[C@@H]1NC(=O)[C@H](C(C)C)N(C)C(=O)[C@H](CC(C)C)N(C)C(=O)[C@H](CC(C)C)N(C)C(=O)[C@@H](C)NC(=O)[C@H](C)NC(=O)[C@H](CC(C)C)N(C)C(=O)[C@H](C(C)C)NC(=O)[C@H](C(C)(C)CNC)N(C)C(=O)[C@@H](C)N(C)C(=O)[C@H](CC)NC1=O` [US9669095, 1], the EC50 result was “in the range around 55 nM”.
On to `CCCC[C@@H](C)C(=O)[C@@H]1NC(=O)[C@H](C(C)C)N(C)C(=O)[C@H](CC(C)C)N(C)C(=O)[C@H](CC(C)C)N(C)C(=O)[C@@H](C)NC(=O)[C@H](C)NC(=O)[C@H](CC(C)C)N(C)C(=O)[C@H](C(C)C)NC(=O)[C@H](C(C)(C)CO)N(C)C(=O)[C@@H](C)N(C)C(=O)[C@H](CC)NC1=O` [US9669095, 2], for which the EC50 result was “in the range around 55 nM”.
As to `CCCC[C@@H](C)C(=O)[C@@H]1NC(=O)[C@H](C(C)C)N(C)C(=O)[C@H](CC(C)C)N(C)C(=O)[C@H](CC(C)C)N(C)C(=O)[C@@H](C)NC(=O)[C@H](C)NC(=O)[C@H](CC(C)C)N(C)C(=O)[C@H](C(C)C)NC(=O)[C@H](C(C)(C)COC(=O)NC)N(C)C(=O)[C@@H](C)N(C)C(=O)[C@H](CC)NC1=O` [US9669095, 3], the EC50 entry was “in the range around 55 nM”.
The result for `CCCC[C@@H](C)C(=O)[C@@H]1NC(=O)[C@H](C(C)C)N(C)C(=O)[C@H](CC(C)C)N(C)C(=O)[C@H](CC(C)C)N(C)C(=O)[C@@H](C)NC(=O)[C@H](C)NC(=O)[C@H](CC(C)C)N(C)C(=O)[C@H](C(C)C)NC(=O)[C@H](C(C)(C)COC(=O)N(C)C)N(C)C(=O)[C@@H](C)N(C)C(=O)[C@H](CC)NC1=O` [US9669095, 4] reads “in the range around 55 nM”; that for `C/C=C/C[C@@H](C)C(=O)[C@@H]1NC(=O)[C@H](C(C)C)N(C)C(=O)[C@H](CC(C)C)N(C)C(=O)[C@H](CC(C)C)N(C)C(=O)[C@@H](C)NC(=O)[C@H](C)NC(=O)[C@H](CC(C)C)N(C)C(=O)[C@H](C(C)C)NC(=O)[C@H](C(C)(C)COC(=O)NC)N(C)C(=O)[C@@H](C)N(C)C(=O)[C@H](CC)NC1=O` [US9669095, 5], “in the range around 55 nM”; that for `CC[C@@H]1NC(=O)[C@H](C(=O)[C@H](C)CCCCCN2CCOCC2)NC(=O)[C@@H](C(C)C)N(C)C(=O)[C@H](CC(C)C)N(C)C(=O)[C@H](CC(C)C)N(C)C(=O)[C@@H](C)NC(=O)[C@H](C)NC(=O)[C@@H](CC(C)C)N(C)C(=O)[C@H](C(C)C)NC(=O)[C@H](C(C)(C)CN(C)C(=O)OC)N(C)C(=O)[C@@H](C)N(C)C1=O` [US9669095, 6], “in the range around 55 nM”.
To `CC[C@@H]1NC(=O)[C@H](C(=O)[C@H](C)CCCCCSc2nnnn2C)NC(=O)[C@H](C(C)C)N(C)C(=O)[C@H](CC(C)C)N(C)C(=O)[C@H](CC(C)C)N(C)C(=O)[C@@H](C)NC(=O)[C@H](C)NC(=O)[C@H](CC(C)C)N(C)C(=O)[C@H](C(C)C)NC(=O)[C@H](C(C)(C)CN(C)C(=O)OC)N(C)C(=O)[C@@H](C)N(C)C1=O` [US9669095, 7] belongs “in the range around 55 nM”.
To `CC[C@@H]1NC(=O)[C@H](C(=O)[C@H](C)CCCCCN2CCOCC2)NC(=O)[C@H](C(C)C)N(C)C(=O)[C@H](CC(C)C)N(C)C(=O)[C@H](CC(C)C)N(C)C(=O)[C@@H](C)NC(=O)[C@H](C)NC(=O)[C@H](CC(C)C)N(C)C(=O)[C@H](C(C)C)NC(=O)[C@H](C(C)(C)CN(C)C(=O)[C@@H](NC(=O)OC)C(C)C)N(C)C(=O)[C@@H](C)N(C)C1=O` [US9669095, 8] belongs “in the range around 55 nM”; to `CC[C@@H]1NC(=O)[C@H](C(=O)[C@H](C)CCCCCSc2nnnn2C)NC(=O)[C@@H](C(C)C)N(C)C(=O)[C@H](CC(C)C)N(C)C(=O)[C@H](CC(C)C)N(C)C(=O)[C@@H](C)NC(=O)[C@H](C)NC(=O)[C@@H](CC(C)C)N(C)C(=O)[C@H](C(C)C)NC(=O)[C@H](C(C)(C)CN(C)C(=O)[C@@H](NC(=O)OC)C(C)C)N(C)C(=O)[C@@H](C)N(C)C1=O` [US9669095, 9], “in the range around 55 nM”.
For the compound `C/C=C/C[C@@H](C)C1ON2C(=O)[C@H](C(C)C)N(C)C(=O)[C@H](CC(C)C)N(C)C(=O)[C@@H](CC(C)C)N(C)C(=O)[C@@H](C)NC(=O)[C@H](C)NC(=O)[C@H](CC(C)C)N(C)C(=O)[C@H](C(C)C)NC(=O)[C@H](C(C)(C)COC(=O)NS(C)(=O)=O)N(C)C(=O)[C@@H](C)N(C)C(=O)[C@H](CC)NC(=O)[C@H]12` (stereo partly drawn) [US9669095, 11], the EC50 is > 1000 nM.
With `C/C=C/C[C@@H](C)C1ON2C(=O)[C@H](C(C)C)N(C)C(=O)[C@H](CC(C)C)N(C)C(=O)[C@@H](CC(C)C)N(C)C(=O)[C@@H](C)NC(=O)[C@H](C)NC(=O)[C@H](CC(C)C)N(C)C(=O)[C@H](C(C)C)NC(=O)[C@H](C(C)(C)COC(=O)NS(=O)(=O)c3ccccc3)N(C)C(=O)[C@@H](C)N(C)C(=O)[C@H](CC)NC(=O)[C@H]12` (stereo partly drawn) [US9669095, 12], the half-maximal effective concentration (EC50) result is “in the range around 550 nM”.
Turning to `C/C=C/C[C@@H](C)C1ON2C(=O)[C@H](C(C)C)N(C)C(=O)[C@H](CC(C)C)N(C)C(=O)[C@@H](CC(C)C)N(C)C(=O)[C@@H](C)NC(=O)[C@H](C)NC(=O)[C@H](CC(C)C)N(C)C(=O)[C@H](C(C)C)NC(=O)[C@H](C(C)(C)CN(C)C(=O)NS(C)(=O)=O)N(C)C(=O)[C@@H](C)N(C)C(=O)[C@H](CC)NC(=O)[C@H]12` (stereo partly drawn) [US9669095, 13], the 50% effective concentration (EC50) result was “in the range around 550 nM”.
To `C/C=C/C[C@@H](C)C1ON2C(=O)[C@H](C(C)C)N(C)C(=O)[C@H](CC(C)C)N(C)C(=O)[C@@H](CC(C)C)N(C)C(=O)[C@@H](C)NC(=O)[C@H](C)NC(=O)[C@H](CC(C)C)N(C)C(=O)[C@H](C(C)C)NC(=O)[C@H](C(C)(C)CN(C)C(=O)NS(=O)(=O)c3ccccc3)N(C)C(=O)[C@@H](C)N(C)C(=O)[C@H](CC)NC(=O)[C@H]12` (stereo partly drawn) [US9669095, 14] belongs “in the range around 550 nM”.

(Values after BindingDB's records for patent US9669095 (Enanta Pharmaceuticals, 2017).)
